Literature values in patent publication US20230414620A1, “TOPICAL RUXOLITINIB FOR TREATING LICHEN PLANUS” (Incyte Corporation, priority 2020, published 2023).

Legend:
[1] = test system: steroid refractory graft versus host disease (GVHD); conditions: systemic JAK1, 2 inhibition
[2] = test system: refractory dermatomyositis (DM); conditions: case report

N#CC[C@H](C1CCCC1)n1cc(-c2ncnc3[nH]ccc23)cn1 [ruxolitinib, (R)-3-(4-(7H-pyrrolo[2,3-d]pyrimidin-4-yl)-1H-pyrazol-1-yl)-3-cyclopentylpropanenitrile]
efficacy in steroid refractory GVHD [1]: highly effective
response in refractory dermatomyositis [2]: exceptional responder
